Source: US6395727B1, “Method of treating Bulimia Nervosa and related eating disorders by administration of atypical antipsychotic medications” (The Cincinnati Children's Hospital Research Foundation, priority 1999, dated 2002)
Like-named read-outs stand apart in the source and are kept apart here.

What was measured:
Bulimia Nervosa [1] = test: therapeutic trial of an antidepressant (fluoxetine) before the risperidone trial, same patient; assay type: in vivo, human; conditions: fluoxetine 20 mg PO qam, approximately 4 months
[2] = some mammals; cited from earlier work
[3] = cited from earlier work
Bulimia Nervosa [4] = test system: Bulimia Nervosa
[5] = week four, risperidone 1.5 mg PO at bedtime, fluoxetine 20 mg PO QAM continued

## CNCCC(Oc1ccc(C(F)(F)F)cc1)c1ccccc1 (stereo not drawn) [fluoxetine]
Bulimia Nervosa [1]
  bingeing and purging: has not subsided
  depressive symptoms (Zung Depression Scores and self-report): remission of depressive symptoms

## OCCOCCN1CCN(C2=Nc3ccccc3Sc3ccccc32)CC1 [Quetiapine, quetiapine]
[2]
  cataract formation: cause cataract formation

## Cc1cc2c(s1)Nc1ccccc1N=C2N1CCN(C)CC1 [Olanzapine, olanzapine]
[3]; in some cases
  weight gain: up to 1 pound per week

## Cc1nc2n(c(=O)c1CCN1CCC(c3noc4cc(F)ccc34)CC1)CCCC2 [risperidone, 3-[2-[4-(6-fluoro-1,2-benzisoxazol-3-yl)-1-piperidinyl]ethyl]-6,7,8,9-tetrahydro-2-methyl-4H-pyrido[1,2-a]pyrimidin-4-one]
Bulimia Nervosa [4]; after two weeks, risperidone 0.5 mg PO twice per day, fluoxetine 20 mg PO QAM continued
  cessation of symptoms: has not had any cessation of symptoms
Bulimia Nervosa [4]; conclusion of 8-week study, risperidone 1.5 mg PO QHS plus fluoxetine
  improvement in bulimic symptomatology (journal entries): 50%
Bulimia Nervosa [4]; conclusion of 8-week study, risperidone 1.5 mg PO QHS plus fluoxetine, self-rating scale
  body image scores improved: 50%
Bulimia Nervosa [4]; conclusion of 8-week study, risperidone 1.5 mg PO QHS plus fluoxetine, self-rating scales
  differences in baseline and final scores of the anxiety and depression scales: no appreciable differences
Bulimia Nervosa [4]; [5]
  reduction in bulimic symptomatology (patient's journal): 30%
  side effects to the medications: no side effects
[3]; in vivo
  weight gain: minimal
  white blood cell count: remains unaffected
